Columns and labels:
Assay in all cases: kinome screen (33PanQinase)
Type in all cases: biochemical
CDK5/p25NCK = target: T1, CDK5/p25NCK (Homo sapiens, UniProt Q00535)
T1 construct: purchased Reaction Biology Europe GmbH (formerly ProQinase)
Description: (§1) The Kinome Screening was performed by Reaction Biology Europe GmbH (http://reactionbiology.com; Freiburg i. Br., Germany).

EPHB4 = target: T2, EPHB4 (Homo sapiens, UniProt P54760)
T2 construct: purchased Reaction Biology Europe GmbH (formerly ProQinase)
T2 sequence (P54760 16-987): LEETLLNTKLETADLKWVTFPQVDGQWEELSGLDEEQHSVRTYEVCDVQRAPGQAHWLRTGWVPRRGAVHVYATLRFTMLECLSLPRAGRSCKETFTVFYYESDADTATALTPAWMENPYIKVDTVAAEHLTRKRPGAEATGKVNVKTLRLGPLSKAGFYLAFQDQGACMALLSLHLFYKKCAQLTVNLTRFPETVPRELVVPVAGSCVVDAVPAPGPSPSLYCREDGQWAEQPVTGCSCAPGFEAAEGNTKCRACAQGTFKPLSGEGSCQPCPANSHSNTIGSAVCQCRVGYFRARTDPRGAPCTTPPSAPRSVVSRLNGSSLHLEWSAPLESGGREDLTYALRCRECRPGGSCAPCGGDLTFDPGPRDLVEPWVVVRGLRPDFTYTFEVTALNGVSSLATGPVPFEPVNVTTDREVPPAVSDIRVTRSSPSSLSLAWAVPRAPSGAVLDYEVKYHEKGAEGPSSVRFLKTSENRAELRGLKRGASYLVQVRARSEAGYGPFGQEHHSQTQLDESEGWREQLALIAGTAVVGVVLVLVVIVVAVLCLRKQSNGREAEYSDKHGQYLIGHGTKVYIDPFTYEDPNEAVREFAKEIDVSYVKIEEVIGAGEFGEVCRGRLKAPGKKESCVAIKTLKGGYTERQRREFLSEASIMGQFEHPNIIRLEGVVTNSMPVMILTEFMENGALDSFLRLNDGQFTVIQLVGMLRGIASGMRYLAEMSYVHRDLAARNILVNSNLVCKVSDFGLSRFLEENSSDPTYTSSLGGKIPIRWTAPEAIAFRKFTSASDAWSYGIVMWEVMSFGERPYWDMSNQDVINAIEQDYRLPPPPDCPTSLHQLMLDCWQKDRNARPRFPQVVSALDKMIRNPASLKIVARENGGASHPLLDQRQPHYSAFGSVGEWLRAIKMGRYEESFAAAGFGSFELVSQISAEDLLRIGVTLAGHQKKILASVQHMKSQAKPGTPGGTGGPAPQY
Description: as §1

ERK5 = target: T3, ERK5 (Homo sapiens, UniProt Q13164)
T3 construct: purchased Reaction Biology Europe GmbH (formerly ProQinase)
Description: as §1

GSG2 = target: T4, GSG2 (Homo sapiens, UniProt Q8TF76)
T4 construct: purchased Reaction Biology Europe GmbH (formerly ProQinase)
T4 sequence (Q8TF76 1-798): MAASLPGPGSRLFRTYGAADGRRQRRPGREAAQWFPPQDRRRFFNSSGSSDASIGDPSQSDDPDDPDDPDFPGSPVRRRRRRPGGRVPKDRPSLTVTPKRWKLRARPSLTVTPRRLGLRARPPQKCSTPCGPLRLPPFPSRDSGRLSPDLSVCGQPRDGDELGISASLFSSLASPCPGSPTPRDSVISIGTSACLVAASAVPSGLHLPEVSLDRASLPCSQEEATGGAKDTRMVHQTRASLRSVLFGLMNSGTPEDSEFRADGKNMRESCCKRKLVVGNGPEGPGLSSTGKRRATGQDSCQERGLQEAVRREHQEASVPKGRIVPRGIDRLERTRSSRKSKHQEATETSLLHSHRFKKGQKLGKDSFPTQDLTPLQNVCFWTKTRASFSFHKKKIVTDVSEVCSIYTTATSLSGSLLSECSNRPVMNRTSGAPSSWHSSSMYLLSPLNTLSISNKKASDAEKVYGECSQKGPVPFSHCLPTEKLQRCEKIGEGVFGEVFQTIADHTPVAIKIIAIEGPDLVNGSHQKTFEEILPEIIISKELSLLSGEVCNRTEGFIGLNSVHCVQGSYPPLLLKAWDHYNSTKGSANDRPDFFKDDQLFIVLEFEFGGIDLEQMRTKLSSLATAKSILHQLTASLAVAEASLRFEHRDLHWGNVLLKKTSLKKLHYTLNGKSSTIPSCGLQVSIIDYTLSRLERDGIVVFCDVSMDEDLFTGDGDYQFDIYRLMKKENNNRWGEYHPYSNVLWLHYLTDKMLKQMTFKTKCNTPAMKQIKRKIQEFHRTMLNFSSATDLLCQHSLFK
Description: as §1

NEK2 = target: T5, NEK2 (Homo sapiens, UniProt P51955)
T5 construct: purchased Reaction Biology Europe GmbH (formerly ProQinase)
T5 sequence (P51955 1-445): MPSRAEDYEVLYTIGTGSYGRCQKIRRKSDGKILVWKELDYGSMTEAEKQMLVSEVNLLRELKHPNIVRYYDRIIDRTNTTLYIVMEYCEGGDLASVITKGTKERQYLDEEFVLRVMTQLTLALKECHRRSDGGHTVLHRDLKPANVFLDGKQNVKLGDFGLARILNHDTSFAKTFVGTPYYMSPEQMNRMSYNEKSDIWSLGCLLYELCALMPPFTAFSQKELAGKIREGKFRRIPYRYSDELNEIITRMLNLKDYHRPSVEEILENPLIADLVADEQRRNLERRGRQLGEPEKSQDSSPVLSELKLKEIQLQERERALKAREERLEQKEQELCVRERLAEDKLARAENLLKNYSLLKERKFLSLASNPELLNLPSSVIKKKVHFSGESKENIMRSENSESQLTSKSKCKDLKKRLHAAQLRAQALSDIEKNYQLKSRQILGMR
Description: as §1

NIK = target: T6, NIK (Homo sapiens, UniProt Q99558)
T6 construct: purchased Reaction Biology Europe GmbH (formerly ProQinase)
Description: as §1

PAK6 = target: T7, PAK6 (Homo sapiens, UniProt Q9NQU5)
T7 construct: purchased Reaction Biology Europe GmbH (formerly ProQinase)
Description: as §1

TRKC = target: T8, TRKC (Homo sapiens, UniProt Q16288)
T8 construct: purchased Reaction Biology Europe GmbH (formerly ProQinase)
Description: as §1

T6 sequence (Q99558 whole entry): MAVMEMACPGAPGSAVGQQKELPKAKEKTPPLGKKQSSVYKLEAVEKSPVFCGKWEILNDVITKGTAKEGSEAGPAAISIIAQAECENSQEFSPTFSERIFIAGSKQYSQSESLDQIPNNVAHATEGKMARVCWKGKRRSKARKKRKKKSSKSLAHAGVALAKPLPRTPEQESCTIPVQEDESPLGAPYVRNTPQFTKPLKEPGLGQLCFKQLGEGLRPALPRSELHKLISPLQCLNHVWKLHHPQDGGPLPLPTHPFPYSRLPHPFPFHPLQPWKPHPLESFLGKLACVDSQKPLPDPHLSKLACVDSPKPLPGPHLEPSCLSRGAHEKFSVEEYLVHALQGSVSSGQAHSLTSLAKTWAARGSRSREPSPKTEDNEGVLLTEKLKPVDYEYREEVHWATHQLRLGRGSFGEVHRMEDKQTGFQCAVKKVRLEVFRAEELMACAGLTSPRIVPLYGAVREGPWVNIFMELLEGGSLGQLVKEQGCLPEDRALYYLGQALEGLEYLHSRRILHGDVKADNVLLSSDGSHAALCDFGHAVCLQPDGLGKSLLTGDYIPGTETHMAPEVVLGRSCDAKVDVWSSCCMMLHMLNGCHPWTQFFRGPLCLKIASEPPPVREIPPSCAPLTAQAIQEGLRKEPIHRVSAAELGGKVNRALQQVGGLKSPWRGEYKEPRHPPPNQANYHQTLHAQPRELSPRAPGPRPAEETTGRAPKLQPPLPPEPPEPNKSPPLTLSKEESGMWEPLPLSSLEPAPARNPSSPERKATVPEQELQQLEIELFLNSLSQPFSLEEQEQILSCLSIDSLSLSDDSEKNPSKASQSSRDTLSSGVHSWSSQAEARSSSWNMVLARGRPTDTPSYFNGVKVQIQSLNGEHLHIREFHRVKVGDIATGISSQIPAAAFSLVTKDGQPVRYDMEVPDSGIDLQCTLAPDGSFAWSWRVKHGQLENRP
T1 sequence (Q00535 whole entry): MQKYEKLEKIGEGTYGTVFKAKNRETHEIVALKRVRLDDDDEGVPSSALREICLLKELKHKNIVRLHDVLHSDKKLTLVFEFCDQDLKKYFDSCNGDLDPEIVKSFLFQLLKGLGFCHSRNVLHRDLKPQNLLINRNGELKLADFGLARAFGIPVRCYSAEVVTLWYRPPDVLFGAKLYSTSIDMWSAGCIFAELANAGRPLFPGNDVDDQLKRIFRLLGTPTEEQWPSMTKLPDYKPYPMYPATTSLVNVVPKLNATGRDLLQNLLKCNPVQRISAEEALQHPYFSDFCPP
T1 sequence (Q15078 99-307 partner limits assumed): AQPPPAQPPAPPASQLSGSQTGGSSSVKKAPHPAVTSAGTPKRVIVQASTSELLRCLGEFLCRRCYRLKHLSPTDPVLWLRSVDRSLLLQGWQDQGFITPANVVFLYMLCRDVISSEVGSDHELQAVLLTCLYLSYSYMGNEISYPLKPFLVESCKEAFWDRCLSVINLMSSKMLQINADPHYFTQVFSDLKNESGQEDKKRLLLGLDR
T3 sequence (Q13164 whole entry): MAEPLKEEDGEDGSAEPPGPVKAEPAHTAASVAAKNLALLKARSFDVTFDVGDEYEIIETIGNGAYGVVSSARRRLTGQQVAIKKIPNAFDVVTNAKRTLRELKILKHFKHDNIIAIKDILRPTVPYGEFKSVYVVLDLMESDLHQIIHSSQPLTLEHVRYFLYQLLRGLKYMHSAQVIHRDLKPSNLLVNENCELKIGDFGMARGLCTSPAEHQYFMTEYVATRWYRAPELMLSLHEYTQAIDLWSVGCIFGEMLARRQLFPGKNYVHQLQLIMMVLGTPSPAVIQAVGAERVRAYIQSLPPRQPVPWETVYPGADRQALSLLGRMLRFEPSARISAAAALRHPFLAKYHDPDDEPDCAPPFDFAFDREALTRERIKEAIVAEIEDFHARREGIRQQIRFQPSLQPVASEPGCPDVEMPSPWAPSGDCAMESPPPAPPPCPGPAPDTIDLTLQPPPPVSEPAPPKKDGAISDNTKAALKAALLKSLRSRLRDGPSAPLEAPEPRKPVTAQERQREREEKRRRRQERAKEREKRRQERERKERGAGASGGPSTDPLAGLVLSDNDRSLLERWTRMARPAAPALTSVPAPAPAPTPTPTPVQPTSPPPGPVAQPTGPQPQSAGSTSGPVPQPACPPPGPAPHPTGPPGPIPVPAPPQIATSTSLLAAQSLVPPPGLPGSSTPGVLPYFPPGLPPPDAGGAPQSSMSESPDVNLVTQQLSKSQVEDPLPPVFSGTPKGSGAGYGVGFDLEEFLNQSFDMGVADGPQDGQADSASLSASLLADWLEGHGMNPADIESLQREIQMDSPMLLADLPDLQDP
T7 sequence (Q9NQU5 whole entry): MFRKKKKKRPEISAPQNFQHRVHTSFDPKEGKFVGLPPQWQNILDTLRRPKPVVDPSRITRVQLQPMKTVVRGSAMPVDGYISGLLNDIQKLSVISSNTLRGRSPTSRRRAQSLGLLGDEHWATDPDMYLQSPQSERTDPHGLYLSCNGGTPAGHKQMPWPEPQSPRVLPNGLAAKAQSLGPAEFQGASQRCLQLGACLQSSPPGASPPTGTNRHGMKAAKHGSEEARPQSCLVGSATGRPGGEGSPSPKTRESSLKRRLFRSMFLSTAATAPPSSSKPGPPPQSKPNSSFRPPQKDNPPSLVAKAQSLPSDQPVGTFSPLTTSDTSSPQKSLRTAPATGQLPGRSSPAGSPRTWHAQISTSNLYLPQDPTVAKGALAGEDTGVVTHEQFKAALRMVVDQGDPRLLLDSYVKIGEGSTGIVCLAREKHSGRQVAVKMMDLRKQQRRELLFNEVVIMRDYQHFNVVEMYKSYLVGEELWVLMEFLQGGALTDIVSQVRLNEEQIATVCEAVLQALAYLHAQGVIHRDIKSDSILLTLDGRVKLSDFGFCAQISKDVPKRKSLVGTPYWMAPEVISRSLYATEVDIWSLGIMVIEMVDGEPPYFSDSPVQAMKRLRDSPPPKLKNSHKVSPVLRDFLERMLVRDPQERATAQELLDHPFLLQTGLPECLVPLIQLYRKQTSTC
T8 sequence (Q16288 32-839): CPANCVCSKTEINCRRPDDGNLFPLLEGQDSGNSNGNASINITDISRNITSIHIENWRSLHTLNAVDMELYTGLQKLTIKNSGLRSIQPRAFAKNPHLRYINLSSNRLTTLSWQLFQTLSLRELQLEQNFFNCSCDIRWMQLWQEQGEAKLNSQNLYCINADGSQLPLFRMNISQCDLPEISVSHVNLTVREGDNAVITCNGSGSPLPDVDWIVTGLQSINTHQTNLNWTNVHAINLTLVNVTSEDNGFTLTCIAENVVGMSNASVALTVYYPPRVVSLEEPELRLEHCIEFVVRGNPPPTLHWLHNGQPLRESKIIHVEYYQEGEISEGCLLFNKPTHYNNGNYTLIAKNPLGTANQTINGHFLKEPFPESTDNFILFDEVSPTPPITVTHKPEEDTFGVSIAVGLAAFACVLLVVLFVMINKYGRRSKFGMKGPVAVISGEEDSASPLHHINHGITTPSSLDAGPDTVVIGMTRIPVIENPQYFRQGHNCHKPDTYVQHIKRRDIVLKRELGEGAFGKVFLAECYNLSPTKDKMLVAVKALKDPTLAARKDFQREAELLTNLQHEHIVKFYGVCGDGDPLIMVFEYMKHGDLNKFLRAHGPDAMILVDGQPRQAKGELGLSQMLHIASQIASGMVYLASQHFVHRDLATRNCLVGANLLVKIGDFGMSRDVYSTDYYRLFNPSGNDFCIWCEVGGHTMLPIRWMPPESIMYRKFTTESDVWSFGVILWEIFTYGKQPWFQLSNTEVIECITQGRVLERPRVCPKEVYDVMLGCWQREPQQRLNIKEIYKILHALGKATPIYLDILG

| Compound | residual kinase activity (CDK5/p25NCK; 0.3 µM) | residual kinase activity (EPHB4; 0.3 µM) | residual kinase activity (ERK5; 0.3 µM) | residual kinase activity (GSG2; 0.3 µM) | residual kinase activity (NEK2; 0.3 µM) | residual kinase activity (NIK; 0.3 µM) | residual kinase activity (PAK6; 0.3 µM) | residual kinase activity (TRKC; 0.3 µM) | other results |
| --- | --- | --- | --- | --- | --- | --- | --- | --- | --- |
| COc1ccnc2[nH]cc(-c3cc(N)nc(N)c3)c12 [meriolin 16] | 1 % of control | 90 % of control | 22 % of control | 0 % of control | 96 % of control | 79 % of control | 76 % of control | 36 % of control | residual kinase activity (CDK5/p25NCK; 0.03 µM): 16 % of control; residual kinase activity (EPHB4; 0.03 µM): 97 % of control; residual kinase activity (ERK5; 0.03 µM): 28 % of control; residual kinase activity (GSG2; 0.03 µM): 2 % of control; residual kinase activity (NEK2; 0.03 µM): 103 % of control; residual kinase activity (NIK; 0.03 µM): 94 % of control; residual kinase activity (PAK6; 0.03 µM): 88 % of control; residual kinase activity (TRKC; 0.03 µM): 72 % of control |
| c1ccc(CNc2cc(-c3c[nH]c4ncccc34)ccn2)cc1 [meriolin 36] | 0 % of control | 110 % of control | 13 % of control | 2 % of control | 95 % of control | 59 % of control | 54 % of control | 18 % of control | residual kinase activity (CDK5/p25NCK; 3 µM): 1 % of control; residual kinase activity (EPHB4; 3 µM): 85 % of control; residual kinase activity (ERK5; 3 µM): 8 % of control; residual kinase activity (GSG2; 3 µM): 0 % of control; residual kinase activity (NEK2; 3 µM): 72 % of control; residual kinase activity (NIK; 3 µM): 33 % of control; residual kinase activity (PAK6; 3 µM): 14 % of control; residual kinase activity (TRKC; 3 µM): 2 % of control |
